Reference: US10030020B2, “Spirocycle compounds and methods of making and using same” (Abide Therapeutics, Inc., priority 2016, dated 2018)
pIC50: −log10 of the molar value.

Key:
Type in all cases: biochemical
FAAH = FAAH (Mus musculus (Mouse), UniProt O08914); experiment: In vitro competitive activity-based protein profiling (mouse brain membrane fraction or cell lysates), FAAH band; conditions: mouse proteome; for inhibition at 1 µM: read-out: FAAH % Inh 1 μM (mouse); for pIC50: competitive ABPP
Protocol: (§1) In Vitro Competitive Activity-Based Protein Profiling.
(§2) Proteomes (mouse brain membrane fraction or cell lysates) (50 μL, 1.0 mg/mL total protein concentration) were preincubated with varying concentrations of inhibitors at 37° C. After 30 min, FP—Rh (1.0 μL, 50 μM in DMSO) was added and the mixture was incubated for another 30 min at 37° C. Reactions were quenched with SDS loading buffer (50 μL-4×) and run on SDS-PAGE. Following gel imaging, serine hydrolase activity was determined by measuring fluorescent intensity of gel bands corresponding to MAGL, ABHD6 and FAAH using ImageJ 1.43u software.

MAGL = MAGL (Mus musculus (Mouse), UniProt O35678); experiment: In vitro competitive activity-based protein profiling (mouse brain membrane fraction or cell lysates), MAGL band; conditions: mouse proteome; for inhibition at 1 µM: read-out: MAGL % Inh 1 μM (mouse); for pIC50: competitive ABPP
Protocol: as §1
Proteomes (mouse brain membrane fraction or cell lysates) (50 μL, 1.0 mg/mL total protein concentration) were preincubated with varying concentrations of inhibitors at 37° C. After 30 min, FP—Rh (1.0 μL, 50 μM in DMSO) was added and the mixture was incubated for another 30 min at 37° C. Reactions were quenched with SDS loading buffer (50 μL-4×) and run on SDS-PAGE.

ABHD6 = ABHD6 (Mus musculus (Mouse), UniProt Q8R2Y0); experiment: In vitro competitive activity-based protein profiling (mouse brain membrane fraction or cell lysates), ABHD6 band; conditions: mouse proteome; for inhibition at 1 µM: read-out: ABHD6 % Inh 1 μM (mouse); for pIC50: competitive ABPP
Protocol: as §1, §2

Chain of FAAH (O08914 whole entry): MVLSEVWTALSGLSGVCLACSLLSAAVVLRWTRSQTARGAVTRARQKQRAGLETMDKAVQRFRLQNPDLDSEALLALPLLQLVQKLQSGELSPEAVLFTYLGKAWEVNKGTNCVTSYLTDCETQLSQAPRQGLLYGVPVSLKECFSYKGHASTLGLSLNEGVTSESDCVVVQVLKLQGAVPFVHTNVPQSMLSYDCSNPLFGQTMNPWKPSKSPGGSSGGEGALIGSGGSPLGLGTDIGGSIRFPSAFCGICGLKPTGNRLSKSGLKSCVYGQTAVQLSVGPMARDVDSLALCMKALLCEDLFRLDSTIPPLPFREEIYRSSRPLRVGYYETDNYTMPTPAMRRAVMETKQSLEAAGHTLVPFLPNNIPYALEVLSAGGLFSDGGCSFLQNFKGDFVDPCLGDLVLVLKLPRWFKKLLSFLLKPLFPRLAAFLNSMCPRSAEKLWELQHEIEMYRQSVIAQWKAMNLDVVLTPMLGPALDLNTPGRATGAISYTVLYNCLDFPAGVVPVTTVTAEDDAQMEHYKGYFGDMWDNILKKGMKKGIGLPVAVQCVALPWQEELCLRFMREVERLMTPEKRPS
Chain of ABHD6 (Q8R2Y0 whole entry): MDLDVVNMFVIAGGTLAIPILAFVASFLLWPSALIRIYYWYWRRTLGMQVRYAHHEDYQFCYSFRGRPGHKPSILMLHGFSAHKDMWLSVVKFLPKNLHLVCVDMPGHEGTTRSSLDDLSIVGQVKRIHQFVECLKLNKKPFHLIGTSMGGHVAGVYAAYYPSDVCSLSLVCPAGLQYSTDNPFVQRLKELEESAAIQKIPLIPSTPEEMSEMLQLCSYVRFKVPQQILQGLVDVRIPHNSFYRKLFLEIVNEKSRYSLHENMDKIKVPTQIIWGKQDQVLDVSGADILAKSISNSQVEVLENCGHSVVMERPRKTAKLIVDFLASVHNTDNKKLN
Chain of MAGL (O35678 whole entry): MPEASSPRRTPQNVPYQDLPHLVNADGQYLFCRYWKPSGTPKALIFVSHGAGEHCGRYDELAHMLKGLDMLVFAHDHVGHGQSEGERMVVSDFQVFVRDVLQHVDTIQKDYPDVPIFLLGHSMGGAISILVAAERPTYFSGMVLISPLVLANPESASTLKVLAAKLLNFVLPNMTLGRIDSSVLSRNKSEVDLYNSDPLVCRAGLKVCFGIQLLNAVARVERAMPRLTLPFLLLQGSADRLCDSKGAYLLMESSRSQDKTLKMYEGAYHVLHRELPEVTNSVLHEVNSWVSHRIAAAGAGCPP

Structure (SMILES): O=C(OC(C(F)(F)F)C(F)(F)F)N1CCC2(CCCN2Cc2cccc(N3CCN(C4CC4)CC3)c2Cl)CC1 [Example 115, 1,1,1,3,3,3-Hexafluoropropan-2-yl 1-(2-chloro-3-(4-cyclopropylpiperazin-1-yl)benzyl)-1,8-diazaspiro[4.5]decane-8-carboxylate]
- inhibition at 1 µM (FAAH): < 25%
- pIC50 (FAAH): < 6.00
- inhibition at 1 µM (MAGL): > 75%
- inhibition at 1 µM (ABHD6): < 25%
- pIC50 (ABHD6): < 6.00

Structure (SMILES): CCN1CCN(c2cccc(CN3CCCC34CCN(C(=O)OC(C(F)(F)F)C(F)(F)F)CC4)c2Cl)CC1 [Example 116, 1,1,1,3,3,3-Hexafluoropropan-2-yl 1-(2-chloro-3-(4-ethylpiperazin-1-yl)benzyl)-1,8-diazaspiro[4.5]decane-8-carboxylate]
- inhibition at 1 µM (FAAH): < 25%
- pIC50 (FAAH): < 6.00
- inhibition at 1 µM (MAGL): > 75%
- pIC50 (MAGL): > 7.00
- inhibition at 1 µM (ABHD6): < 25%
- pIC50 (ABHD6): < 6.00

Structure (SMILES): O=C(OC(C(F)(F)F)C(F)(F)F)N1CCC2(CCCN2Cc2cccc(N3CCC4(CCOCC4)C3)c2Cl)CC1 [Example 117, 1,1,1,3,3,3-Hexafluoropropan-2-yl 1-(2-chloro-3-(8-oxa-2-azaspiro[4.5]decan-2-yl)benzyl)-1,8-diazaspiro[4.5]decane-8-carboxylate]
- inhibition at 1 µM (FAAH): < 25%
- pIC50 (FAAH): < 6.00
- inhibition at 1 µM (MAGL): > 75%
- inhibition at 1 µM (ABHD6): < 25%
- pIC50 (ABHD6): < 6.00

Structure (SMILES): O=C(OC(C(F)(F)F)C(F)(F)F)N1CCC2(CCCN2Cc2ccc3c(c2)OCCO3)CC1 [Example 126, 1,1,1,3,3,3-Hexafluoropropan-2-yl 1-(2,3-dihydro-1,4-benzodioxin-6-ylmethyl)-1,8-diazaspiro[4.5]decane-8-carboxylate]
- inhibition at 1 µM (FAAH): < 25%
- pIC50 (FAAH): < 6.00
- inhibition at 1 µM (MAGL): > 75%
- pIC50 (MAGL): > 7.00
- inhibition at 1 µM (ABHD6): 25 to 75%
- pIC50 (ABHD6): < 6.00

Structure (SMILES): O=C(OC(C(F)(F)F)C(F)(F)F)N1CCC2(CCCN2Cc2ccc(N3CCOCC3)c(Cl)c2)CC1 [Example 127, 1,1,1,3,3,3-Hexafluoropropan-2-yl 1-(3-chloro-4-morpholinobenzyl)-1,8-diazaspiro[4.5]decane-8-carboxylate]
- inhibition at 1 µM (FAAH): < 25%
- pIC50 (FAAH): < 6.00
- inhibition at 1 µM (MAGL): > 75%
- inhibition at 1 µM (ABHD6): 25 to 75%
- pIC50 (ABHD6): < 6.00

Structure (SMILES): O=C(OC(C(F)(F)F)C(F)(F)F)N1CCC2(CCCN2Cc2ccc(Cl)c(N3CCOCC3)c2)CC1 [Example 131, 1,1,1,3,3,3-Hexafluoropropan-2-yl 1-(4-chloro-3-morpholinobenzyl)-1,8-diazaspiro[4.5]decane-8-carboxylate]
- inhibition at 1 µM (FAAH): < 25%
- pIC50 (FAAH): < 6.00
- inhibition at 1 µM (MAGL): > 75%
- pIC50 (MAGL): > 7.00
- inhibition at 1 µM (ABHD6): < 25%
- pIC50 (ABHD6): < 6.00

Structure (SMILES): Cc1cc(CN2CCC3(CCN(C(=O)OC(C(F)(F)F)C(F)(F)F)CC3)C2)ccc1Cl [Example 135, 1,1,1,3,3,3-Hexafluoropropan-2-yl 2-(4-chloro-3-methylbenzyl)-2,8-diazaspiro[4.5]decane-8-carboxylate]
- inhibition at 1 µM (FAAH): < 25%
- pIC50 (FAAH): < 6.00
- inhibition at 1 µM (MAGL): > 75%
- pIC50 (MAGL): > 7.00
- inhibition at 1 µM (ABHD6): ≥ 75%
- pIC50 (ABHD6): 6.00 to 7.00

Structure (SMILES): Cc1ccc(CN2CCC3(CCN(C(=O)OC(C(F)(F)F)C(F)(F)F)CC3)C2)cc1Cl [Example 136, 1,1,1,3,3,3-Hexafluoropropan-2-yl 2-(3-chloro-4-methylbenzyl)-2,8-diazaspiro[4.5]decane-8-carboxylate]
- inhibition at 1 µM (FAAH): < 25%
- pIC50 (FAAH): < 6.00
- inhibition at 1 µM (MAGL): > 75%
- pIC50 (MAGL): 6.00 to 7.00
- inhibition at 1 µM (ABHD6): ≥ 75%
- pIC50 (ABHD6): 6.00 to 7.00

Structure (SMILES): O=C(OC(C(F)(F)F)C(F)(F)F)N1CCC2(CCN(Cc3ccc4c(c3)OCCO4)C2)CC1 [Example 137, 1,1,1,3,3,3-Hexafluoropropan-2-yl 2-((2,3-dihydrobenzo[b][1,4]dioxin-6-yl)methyl)-2,8-diazaspiro[4.5]decane-8-carboxylate]
- inhibition at 1 µM (FAAH): < 25%
- pIC50 (FAAH): < 6.00
- inhibition at 1 µM (MAGL): > 75%
- pIC50 (MAGL): 6.00 to 7.00
- inhibition at 1 µM (ABHD6): ≥ 75%
- pIC50 (ABHD6): > 7.00

Structure (SMILES): O=C(OC(C(F)(F)F)C(F)(F)F)N1CCC2(CCN(Cc3ccc(N4CCOCC4)c(Cl)c3)C2)CC1 [Example 138, 1,1,1,3,3,3-Hexafluoropropan-2-yl 2-(3-chloro-4-morpholinobenzyl)-2,8-diazaspiro[4.5]decane-8-carboxylate]
- inhibition at 1 µM (FAAH): < 25%
- pIC50 (FAAH): < 6.00
- inhibition at 1 µM (MAGL): > 75%
- inhibition at 1 µM (ABHD6): ≥ 75%
- pIC50 (ABHD6): > 7.00

Structure (SMILES): O=C(OC(C(F)(F)F)C(F)(F)F)N1CCC2(CCN(Cc3ccc(N4CCCC4)c(Cl)c3)C2)CC1 [Example 139, 1,1,1,3,3,3-Hexafluoropropan-2-yl 2-(3-chloro-4-(pyrrolidin-1-yl)benzyl)-2,8-diazaspiro[4.5]decane-8-carboxylate]
- inhibition at 1 µM (FAAH): < 25%
- pIC50 (FAAH): < 6.00
- inhibition at 1 µM (MAGL): > 75%
- pIC50 (MAGL): 6.00 to 7.00
- inhibition at 1 µM (ABHD6): ≥ 75%
- pIC50 (ABHD6): 6.00 to 7.00

Structure (SMILES): O=C(OC(C(F)(F)F)C(F)(F)F)N1CCC2(CCN(Cc3ccc(N4CCOCC4)c(C(F)(F)F)c3)C2)CC1 [Example 140, 1,1,1,3,3,3-Hexafluoropropan-2-yl 2-(4-morpholino-3-(trifluoromethyl)benzyl)-2,8-diazaspiro[4.5]decane-8-carboxylate]
- inhibition at 1 µM (FAAH): < 25%
- pIC50 (FAAH): < 6.00
- inhibition at 1 µM (MAGL): > 75%
- pIC50 (MAGL): > 7.00
- inhibition at 1 µM (ABHD6): ≥ 75%
- pIC50 (ABHD6): 6.00 to 7.00

Structure (SMILES): O=C(OC(C(F)(F)F)C(F)(F)F)N1CCC2(CCN(Cc3ccc(N4CCCC4)c(C(F)(F)F)c3)C2)CC1 [Example 141, 1,1,1,3,3,3-Hexafluoropropan-2-yl 2-(4-(pyrrolidin-1-yl)-3-(trifluoromethyl)benzyl)-2,8-diazaspiro[4.5]decane-8-carboxylate]
- inhibition at 1 µM (FAAH): < 25%
- pIC50 (FAAH): < 6.00
- inhibition at 1 µM (MAGL): > 75%
- pIC50 (MAGL): 6.00 to 7.00
- inhibition at 1 µM (ABHD6): ≥ 75%
- pIC50 (ABHD6): 6.00 to 7.00

Structure (SMILES): CC(=O)N1CCCc2cccc(CN3CCCC34CCN(C(=O)OC(C(F)(F)F)C(F)(F)F)CC4)c21 [Example 142, 1,1,1,3,3,3-Hexafluoropropan-2-yl 1-((1-acetyl-1,2,3,4-tetrahydroquinolin-8-yl)methyl)-1,8-diazaspiro[4.5]decane-8-carboxylate]
- inhibition at 1 µM (FAAH): < 25%
- pIC50 (FAAH): < 6.00
- inhibition at 1 µM (MAGL): > 75%
- pIC50 (MAGL): 6.00 to 7.00
- inhibition at 1 µM (ABHD6): < 25%
- pIC50 (ABHD6): < 6.00

Structure (SMILES): CS(=O)(=O)N1CCCc2cccc(CN3CCCC34CCN(C(=O)OC(C(F)(F)F)C(F)(F)F)CC4)c21 [Example 143, 1,1,1,3,3,3-Hexafluoropropan-2-yl 1-((1-methanesulfonyl-1,2,3,4-tetrahydroquinolin-8-yl)methyl)-1,8-diazaspiro[4.5]decane-8-carboxylate]
- inhibition at 1 µM (FAAH): < 25%
- pIC50 (FAAH): < 6.00
- inhibition at 1 µM (MAGL): > 75%
- pIC50 (MAGL): > 7.00
- inhibition at 1 µM (ABHD6): < 25%
- pIC50 (ABHD6): < 6.00

Structure (SMILES): CCN1CCc2cccc(CN3CCCC34CCN(C(=O)OC(C(F)(F)F)C(F)(F)F)CC4)c2C1 [Example 144, 1,1,1,3,3,3-Hexafluoropropan-2-yl 1-((2-ethyl-1,2,3,4-tetrahydroisoquinolin-8-yl)methyl)-1,8-diazaspiro[4.5]decane-8-carboxylate]
- inhibition at 1 µM (FAAH): < 25%
- pIC50 (FAAH): < 6.00
- inhibition at 1 µM (MAGL): > 75%
- pIC50 (MAGL): 6.00 to 7.00
- inhibition at 1 µM (ABHD6): 25 to 75%
- pIC50 (ABHD6): < 6.00

Structure (SMILES): CC(=O)N1CCc2cccc(CN3CCCC34CCN(C(=O)OC(C(F)(F)F)C(F)(F)F)CC4)c2C1 [Example 145, 1,1,1,3,3,3-Hexafluoropropan-2-yl 1-((2-acetyl-1,2,3,4-tetrahydroisoquinolin-8-yl)methyl)-1,8-diazaspiro[4.5]decane-8-carboxylate]
- inhibition at 1 µM (FAAH): < 25%
- pIC50 (FAAH): < 6.00
- inhibition at 1 µM (MAGL): > 75%
- pIC50 (MAGL): > 7.00
- inhibition at 1 µM (ABHD6): < 25%
- pIC50 (ABHD6): < 6.00

Structure (SMILES): CC(C)N1CCc2cccc(CN3CCCC34CCN(C(=O)OC(C(F)(F)F)C(F)(F)F)CC4)c2C1 [Example 147, 1,1,1,3,3,3-Hexafluoropropan-2-yl 1-((2-isopropyl-1,2,3,4-tetrahydroisoquinolin-8-yl)methyl)-1,8-diazaspiro[4.5]decane-8-carboxylate]
- inhibition at 1 µM (FAAH): < 25%
- pIC50 (FAAH): < 6.00
- inhibition at 1 µM (MAGL): > 75%
- pIC50 (MAGL): 6.00 to 7.00
- inhibition at 1 µM (ABHD6): < 25%
- pIC50 (ABHD6): < 6.00

Structure (SMILES): O=C(OC(C(F)(F)F)C(F)(F)F)N1CCC2(CCCN2Cc2cccc3c2CN(C2CC2)CC3)CC1 [Example 148, 1,1,1,3,3,3-Hexafluoropropan-2-yl 1-((2-cyclopropyl-1,2,3,4-tetrahydroisoquinolin-8-yl)methyl)-1,8-diazaspiro[4.5]decane-8-carboxylate]
- inhibition at 1 µM (FAAH): < 25%
- pIC50 (FAAH): < 6.00
- inhibition at 1 µM (MAGL): > 75%
- pIC50 (MAGL): > 7.00
- inhibition at 1 µM (ABHD6): < 25%
- pIC50 (ABHD6): < 6.00

Structure (SMILES): CC(C)CN1CCc2cccc(CN3CCCC34CCN(C(=O)OC(C(F)(F)F)C(F)(F)F)CC4)c2C1 [Example 149, 1,1,1,3,3,3-Hexafluoropropan-2-yl 1-((2-(2-methylpropyl)-1,2,3,4-tetrahydroisoquinolin-8-yl)methyl)-1,8-diazaspiro[4.5]decane-8-carboxylate]
- inhibition at 1 µM (FAAH): < 25%
- pIC50 (FAAH): < 6.00
- inhibition at 1 µM (MAGL): > 75%
- pIC50 (MAGL): 6.00 to 7.00
- inhibition at 1 µM (ABHD6): 25 to 75%
- pIC50 (ABHD6): < 6.00
